The text below walks through data of publication PMC10305218, “Expression of β-Glucosidases from the Yak Rumen in Lactic Acid Bacteria: A Genetic Engineering Approach” (Microorganisms, 2023).

In general, Km refers to the concentration of substrate that gives half-maximal velocity.

The subject of this experiment is T1, Bgl.
T1 construct: gene bglA; bglA-bglB fusion (usp45-bglA-usp45-bglB, pMG36e) secreted by L. lactis NZ9000; gene 2722 bp; printed about 75 kDa (less than the sum of both); supernatant / TCA-acetone precipitate
Description: DNS reducing sugar assay, Michaelis-Menten / Lineweaver-Burk fit. Type of experiment: biochemical, Paenibacillus polymyxa. The following applies: 50 °C, pH 7.0; bacterial supernatant. From the text: DNS reducing sugar assay, Michaelis-Menten / Lineweaver-Burk fit on Bgl

In the case of `OCc1ccccc1O[C@@H]1O[C@H](CO)[C@@H](O)[C@H](O)[C@H]1O` [salicin], the Km came out at 34.8 µM.
